Values of other authors as cited in article PMC3368153 (Nature chemical biology, 2012).

What was measured:
[1] = test system: γ2 F77I GABAAR; settings: versus wild type
[2] = test system: α1 H101C GABAAR; settings: versus wild type
[3] = test system: α1 H101R mutation GABAAR
[4] = test system: α1 His101 replaced by glutamine, GABAAR; settings: versus wild type
[5] = test system: γ2 F77Y GABAAR; settings: versus wild type
[6] = test system: γ2 F77L GABAAR
[7] = test system: α1 Y209A GABAAR; settings: versus wild type

Compound	loss of affinity (factor), γ2 F77I [1]	affinity in α1 H101R mutant [3]	affinity loss (factor), γ2 F77Y [5]	tolerance of point mutation γ2 F77L (affinity) [6]	decrease in binding affinity (factor), α1 Y209A [7]	other results
Ro15-8670	4-5	–	–	–	–	–
CN1C(=O)CN=C(c2ccccc2F)c2cc([N+](=O)[O-])ccc21 [flunitrazepam]	–	drastically reduced affinity	–	–	–	loss of affinity (factor), cysteine at α1 His101 [2]: 200; loss of affinity (factor), glutamine at α1 His101 [4]: 15
CN1C(=O)CN=C(c2ccccc2)c2cc(Cl)ccc21 [diazepam]	4-5	–	250	tolerated well	40	–
monochlorodiazepam	–	–	530	–	–	–
dichlorodiazepam	–	–	700	–	–	–
CCOC(=O)c1ncn2c1CN(C)C(=O)c1cc(F)ccc1-2 [flumazenil]	2,000	tolerate this mutation	–	tolerated well	41	–
